# Test results reported in patent US12691083B2, “Pharmaceutical composition for preventing or treating attention deficit/hyperactivity disorder, containing KDS2010 as active ingredient” (DANKOOK UNIVERSITY CHEONAN CAMPUS INDUSTRY ACADEMIC …, priority 2021, dated 2026).
# Experiments:
# Type in all cases: in vivo
# [1] = test system: Git1 gene-deficient hetero (+/−) mice; assay: Passive avoidance test (fear memory learning ability); details: Git1 hetero type (+/−) mice, KDS2010 orally 10 mg/kg per day
# Description: The hippocampus, one of the regions that affects ADHD, is responsible for functions related to learning and memory. In order to evaluate the effect of ameliorating ADHD upon administration of KDS2010, KDS2010 was administered to Git1 gene-deficient hetero (+/−) mice, an animal model with ADHD, and a passive avoidance test that enables evaluation on a fear memory learning ability in relation to the function of the dentate gyrus in the hippocampus was conducted. The passive avoidance test was performed using a common passive avoidance test device which was a shuttle box divided into two rooms, one of which was equipped with a bright light bulb to create a bright environment that the laboratory animals dislike, while the other room was designed not to allow light to enter such that the laboratory animals may feel comfortable. […] Immediately thereafter, after 24 hours and after 48 hours, the latency time of entering a dark room without an electric shock is measured up to 90 seconds (retention tests 1, 2, and 3).
# The KDS2010 was orally administered at a concentration of 10 mg/kg per day. The amount (mg) of each drug was calculated according to the weight (kg) of each mouse, followed by dissolution in 100 μL of drinking water. […] The daily amount of water consumed by adult mice older than 7 weeks was administered at a calculated dose of 10 ml/day. […]
# [2] = test system: Git1 hetero type (+/−) mice; assay: Open field test (hyperactivity, locomotor activity); details: Git1 hetero type (+/−) mice administered KDS2010; movement measured for 10 minutes; FIG. 4
# Description: (§1) The KDS2010 was orally administered at a concentration of 10 mg/kg per day. The amount (mg) of each drug was calculated according to the weight (kg) of each mouse, followed by dissolution in 100 μL of drinking water. Oral administration was performed once a day. The daily amount of water consumed by adult mice older than 7 weeks was administered at a calculated dose of […]. The drug was administered 3 days prior to passive avoidance, and the drug administration was continued during the passive avoidance test. KDS2010 is an inhibitor against monoamine oxidase B (MAOB) and may reduce GABA levels that are increased in astrocytes of the hippocampus.
# ADHD is diagnosed based on two main tendencies including a hyperactive type and an inattention type, but the two symptoms don't necessarily occur together. From this point of view, hyperactivity-related abilities should not be impaired in the course of treatment for inattention, which has been determined through an open field test that enables measurement of hyperactivity.
# An open field test was performed to assess whether there is a behavioral improvement. […] The mice were placed in the center of an open field test cage (30×30×30 cm), and its movement was measured for 10 minutes. The measured videos were analyzed for locomotor activity through ANYmaze.
# [3] = test system: Git1 hetero type (+/−) mice; assay: Self-grooming test; details: Git1 hetero type (+/−) mice administered KDS2010; recorded for 10 minutes; compared with wild type (+/+); FIG. 5
# Description: as §1
# For a self-grooming test, mice were placed in a plastic cylinder with a diameter of 15 cm and a height of 35 cm. In the plastic cylinder, mice were habituated for about 20 minutes, and then self-grooming behavior was recorded for 10 minutes. The duration of the self-grooming behavior was checked through the recorded video, and if there was an interval of 5 seconds, it was measured as different self-grooming. The number of each different self-grooming behavior was expressed as each different self-grooming bout.
compound,measurement,setting,value
"C[C@H](NCc1ccc(-c2ccc(C(F)(F)F)cc2)cc1)C(N)=O [KDS2010, (S)-2-(((4′-(trifluoromethyl)-[1,1′-biphenyl]-4-yl)methyl)amino)propenamide]",fear memory learning ability,"[1]; from 3 days prior to and during test, compared with wild type (+/+), FIG. 2","recovery in the fear memory learning ability, similar to the wild type (+/+) mice"
same,"entry time (time to enter the dark room), retention","[1]; retention trial, compared with wild type",entry time recovered closer to the wild type
same,effect on hyperactivity,[2],no effect was derived on hyperactivity
same,self-grooming duration,[3],decrease to a value similar to the wild type (+/+) mice
